Test results from PMC8222254, “Self-assembly of an anion receptor with metal-dependent kinase inhibition and potent in vitro anti-cancer properties” (Nature Communications, 2021).
pIC50: −log10 of the molar value. Several values for one entry are separate records, joined by “and”; a condition that tells them apart may be missing. Identical values can stand only once. Like-named read-outs stand apart in the source and are kept apart here.

How the values were obtained:
[1] = target: T1, recombinant human AMPK (α1β2γ1) (Homo sapiens, UniProt Q13131); test: Substrate competition assay (ADP-Glo Kinase Assay); type: biochemical
T1 construct: purchased Promega

[2] = tested on: NP1 adult brain neural progenitor cells; test: Chemosensitivity, 96 h continuous exposure, MTT assay; type: cell-based, human
In short: (§1)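 Cells seeded at 2 × 10^3/well (GBM1 3 × 10^3/well) and left overnight at 37 °C, then exposed continuously for 96 h to a range of compound concentrations (final DMSO 0.2%). Viability read by MTT, absorbance at 540 nm; IC50 taken from dose-response curves as concentration reducing cell growth by 50%.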

[3] = tested on: GBM1 glioblastoma cancer stem cell model; test: as above; type: cell-based, human; conditions: for pIC50: GBM1, 96 h, MTT; for Selectivity Index using the NPI non-cancer cell line: IC50 NP1 / IC50 GBM1; for SI (ARPE19): mean IC50 ARPE-19 / mean IC50 GBM1; for SI (MCF10A): mean IC50 MCF10A / mean IC50 GBM1; for SI (NPI): mean IC50 NP1 / mean IC50 GBM1;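 on SI (NPI): adult human brain neural progenitor non-cancer cells from an epilepsy surgery patient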;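 on Selectivity Index using the NPI non-cancer cell line: adult human brain neural progenitor non-cancer cells from an epilepsy surgery patient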
In short: as §1

[4] = NP1, 96 h, MTT, individual run, read-out: IC50 values for each replicate
[5] = NP1, 96 h, MTT, mean of at least 3 independent experiments, read-out: Mean IC50
[6] = NP1 non-cancer, read-out: Mean IC50 values
[7] = individual run, read-out: IC50 values for each replicate
[8] = mean of at least 3 independent experiments, read-out: Mean IC50

T1 sequence (Q13131 whole entry): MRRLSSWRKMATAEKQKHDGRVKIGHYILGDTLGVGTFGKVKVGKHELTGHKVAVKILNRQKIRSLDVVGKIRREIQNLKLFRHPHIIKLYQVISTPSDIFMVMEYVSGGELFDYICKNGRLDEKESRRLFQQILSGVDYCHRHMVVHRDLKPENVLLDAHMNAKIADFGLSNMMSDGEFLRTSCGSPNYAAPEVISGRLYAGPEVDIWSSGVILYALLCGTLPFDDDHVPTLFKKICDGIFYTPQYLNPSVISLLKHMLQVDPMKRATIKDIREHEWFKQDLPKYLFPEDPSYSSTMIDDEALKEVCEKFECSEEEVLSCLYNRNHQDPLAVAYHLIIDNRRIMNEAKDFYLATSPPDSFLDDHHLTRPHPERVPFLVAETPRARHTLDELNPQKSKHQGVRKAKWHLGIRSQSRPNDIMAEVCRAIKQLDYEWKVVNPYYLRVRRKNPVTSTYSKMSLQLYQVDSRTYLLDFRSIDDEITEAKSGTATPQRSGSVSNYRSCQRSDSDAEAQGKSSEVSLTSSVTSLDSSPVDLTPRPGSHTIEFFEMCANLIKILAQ
T1 sequence (O43741 whole entry partner): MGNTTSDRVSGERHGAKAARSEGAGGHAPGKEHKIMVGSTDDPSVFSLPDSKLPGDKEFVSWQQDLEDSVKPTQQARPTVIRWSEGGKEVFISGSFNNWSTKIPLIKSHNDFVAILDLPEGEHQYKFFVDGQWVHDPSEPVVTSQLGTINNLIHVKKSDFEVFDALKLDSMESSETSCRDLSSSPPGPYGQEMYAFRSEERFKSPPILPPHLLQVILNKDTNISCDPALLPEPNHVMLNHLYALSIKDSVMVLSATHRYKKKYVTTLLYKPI
T1 sequence (P54619 whole entry partner): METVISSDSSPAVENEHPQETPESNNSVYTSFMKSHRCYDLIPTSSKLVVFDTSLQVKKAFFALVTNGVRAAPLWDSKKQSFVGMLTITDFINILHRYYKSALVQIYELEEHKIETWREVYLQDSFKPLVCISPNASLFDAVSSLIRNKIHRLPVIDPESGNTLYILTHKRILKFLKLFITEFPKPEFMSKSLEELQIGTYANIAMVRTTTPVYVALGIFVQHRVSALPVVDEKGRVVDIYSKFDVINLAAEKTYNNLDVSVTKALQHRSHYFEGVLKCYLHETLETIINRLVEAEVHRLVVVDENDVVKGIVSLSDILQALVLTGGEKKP

SMILES | %AMPK Activity Remaining, Mean (data for the bars) ([1]; Substrate 0.5 mg/ml as printed) [%] | %AMPK Activity Remaining, Mean (data for the bars) ([1]; Substrate 20 mg/ml as printed) [%] | %AMPK Activity Remaining, Mean (data for the bars) ([1]; Substrate 200 mg/ml as printed) [%] | %AMPK Activity Remaining, Mean (data for the bars) ([1]; Substrate 500 mg/ml as printed) [%] | pIC50 [2, 4] | pIC50 [2, 5] | pIC50 [2, 6] | pIC50 [3, 7] | pIC50 ([3]; mean of at least 3 independent experiments, listed as [L2Cu3]^6+, read-out: Mean IC50) | pIC50 [3, 8] | Selectivity Index using the NPI non-cancer cell line [3] | SI (ARPE19) [3] | SI (MCF10A) [3] | SI (NPI) [3] | pIC50 ([3]; mean of at least 3 independent experiments, listed as [L2Zn3]^6+, read-out: Mean IC50)
[Cu+2].[Cu+2].[Cu+2].c1ccc(-c2csc(NCCN(CCNc3nc(-c4ccccn4)cs3)CCNc3nc(-c4ccccn4)cs3)n2)nc1.c1ccc(-c2csc(NCCN(CCNc3nc(-c4ccccn4)cs3)CCNc3nc(-c4ccccn4)cs3)n2)nc1 [[L2Cu3]6+] | 34.60 | 17.00 | 25.40 | 17.20 | 4.41 and 4.35 | 4.37 | 4.37 | 5.27 and 5.35 and 5.29 | < 6.00 | 5.30 | 8.67 | 10.59 | 9.71 | 8.67 | 
CC(=O)[O-].CC(=O)[O-].CC(=O)[O-].CC(=O)[O-].CC(=O)[O-].CC(=O)[O-].[Zn+2].[Zn+2].[Zn+2].c1ccc(-c2csc(NCCN(CCNc3nc(-c4ccccn4)cs3)CCNc3nc(-c4ccccn4)cs3)n2)nc1.c1ccc(-c2csc(NCCN(CCNc3nc(-c4ccccn4)cs3)CCNc3nc(-c4ccccn4)cs3)n2)nc1 [[L2Zn3]6+] | 42.90 | 39.40 | 43.70 | 35.80 | 5.24 and 5.05 | 5.11 | 5.11 | 5.49 and 5.35 and 5.36 |  | 5.40 | 1.95 | 39.31 | 40.41 | 1.95 | < 6.00
